Assays:
[1] = Release kinetics of local anesthetic from hyaluronic acid gel by dialysis, UV-visible spectrophotometry; assay type: physicochemical; details: HA 3×10^6 Da, X=0.12, 20 mg/g; for mass percentage of local anesthetic in the hyaluronic acid gel: initial 3 mg/g, 37° C., physiological saline
Description: The release kinetics were, however, studied at 37° C. in physiological saline medium. Monitoring by UV-visible spectrophotometry is performed to assay the local anesthetic present in the gel.

[2] = cited from earlier work

release kinetics from the hyaluronic acid gel (FIG. 1), lidocaine versus mepivacaine ([1]; 3 mg/g, dialysis at 37° C. in physiological saline): comparable
mass percentage of local anesthetic in the hyaluronic acid gel ([1]; dialysis time 0 h): 0.290 mass %
mass percentage of local anesthetic in the hyaluronic acid gel ([1]; dialysis time 1.5 h): 0.133 mass %
mass percentage of local anesthetic in the hyaluronic acid gel ([1]; dialysis time 5 h): 0.100 mass %
mass percentage of local anesthetic in the hyaluronic acid gel ([1]; dialysis time 7 h): 0.098 mass %
mass percentage of local anesthetic in the hyaluronic acid gel ([1]; dialysis time 23 h): 0.086 mass %
mass percentage of local anesthetic in the hyaluronic acid gel ([1]; dialysis time 48 h): 0.077 mass %
mass percentage of local anesthetic in the hyaluronic acid gel ([1]; dialysis time 72 h): 0.075 mass %
Structure (SMILES): Cc1cccc(C)c1NC(=O)C1CCCCN1C (stereo not drawn) [Mepivacaine, mepivacaine]
pKa [2]: 7.7
